Where a name gives a salt, the structure may show the parent alone.
Each compound was assayed against T1, intracellular domain of DDR1 (Homo sapiens, UniProt Q08345) (assay: Evaluation of DDR1 inhibition activity with HTRF KinEASE-TK kit). Conditions: intracellular domain of DDR1 5 ng/μL, ATP 25 mol/L (so in the source), TK Substrate-biotin 1000 nmol/L, room temperature, one hour.
T1 construct: the intracellular domain of DDR1 (in a final concentration of 5 ng/μL) (Carna Biosciences, Inc.); purchased Carna Biosciences, Inc
T1 sequence (Q08345 444-876 isoform Q08345-2 limits assumed): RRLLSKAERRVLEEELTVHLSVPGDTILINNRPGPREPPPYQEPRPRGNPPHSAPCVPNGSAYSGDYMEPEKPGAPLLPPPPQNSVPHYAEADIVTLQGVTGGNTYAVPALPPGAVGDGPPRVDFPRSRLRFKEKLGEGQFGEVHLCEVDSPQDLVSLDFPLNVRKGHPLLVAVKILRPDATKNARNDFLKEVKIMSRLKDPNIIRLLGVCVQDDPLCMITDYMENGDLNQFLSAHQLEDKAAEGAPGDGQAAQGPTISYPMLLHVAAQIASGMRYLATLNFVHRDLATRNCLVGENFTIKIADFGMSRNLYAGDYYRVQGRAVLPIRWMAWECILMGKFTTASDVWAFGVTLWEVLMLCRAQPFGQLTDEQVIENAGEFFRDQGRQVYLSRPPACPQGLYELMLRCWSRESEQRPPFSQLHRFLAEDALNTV
Assay type: biochemical
Protocol: The DDR1 inhibition activity of the compounds of Examples 1 to 51 was evaluated with HTRF® KinEASE-TK kit (Cisbio Bioassays).
Each test substance was dissolved in dimethyl sulfoxide (hereinafter referred to as DMSO) and then used for the evaluation as described below. Moreover, each of test substances and reagents was diluted in the kinase buffer (Cisbio Bioassays) prepared by adding thereto MgCl2, MnCl2, DTT, and the Supplemental Enzyme buffer (Cisbio Bioassays) to concentrations of 5 mmol/L, 0.5 mmol/L, 0.25 mmol/L, and 50 nmol/L, respectively, and then used. Each test substance (in DMSO in a final concentration of 1%), the intracellular domain of DDR1 (in a final concentration of 5 ng/μL) (Carna Biosciences, Inc.), the phosphate donor ATP (in final concentration of 25 mol/L) (Sigma), and the substrate TK Substrate-biotin (in a final concentration of 1000 nmol/L) (Cisbio Bioassays) were added to a 384-well black plate (Corning) and allowed to react at room temperature for one hour. After completion of the reaction, the TK Antibody-Cryptate (Cisbio Bioassays) and the Streptavidin-XL665 (Cisbio Bioassays) were added thereto and allowed to react at room temperature for one hour. In addition, the plate was provided with a well to which a test substance was not added, and with a well to which the intracellular domain of DDR1 and a test substance were not added.
The fluorescence intensity in each well was measured using a multi-label counter (Envision, PerkinElmer; excitation wavelength: 320 nm, measurement wavelength: 665 nm and 620 nm) to calculate a Ratio (the fluorescence intensity at 665 nm/the fluorescence intensity at 620 nm). The inhibition rate (%) of a test substance at each concentration was calculated based on the formula below. Inhibition rate (%)=([the Ratio obtained from the well containing no test substance]−[the Ratio from a well containing a test substance])/([the Ratio obtained from the well containing no test substance]−[the Ratio obtained from the well containing no intracellular domain of DDR1 and no test substance])×100
The calculated inhibition rates were fitted to a sigmoidal dose-response curve by regression analysis using the Prism 5.04 (GraphPad Software, Inc.) to calculate the ICso0 value of the test substance.
Compound CNCCNC(=O)c1ccc(COc2ccccc2CNC(=O)Nc2cc(OC(F)(F)F)ccc2OC)cc1 [Compound of Example 17, 4-((2-((3-(2-methoxy-5-(trifluoromethoxy)phenyl)ureido)methyl)phenoxy)methyl)-N-(2-(methylamino)ethyl)benzamide] has an IC50 of 185 nM. COc1ccc(C(F)(F)F)cc1NC(=O)NCc1cccc(OCc2cccnc2)c1 [Compound of Example 6] was tested, and the IC50 was 32.5 nM. COc1ccc(Cl)cc1NC(=O)NCc1ccccc1Oc1ccc(C(N)=O)cc1 [Compound of Example 50] was tested, and the IC50 was 12.3 nM. Compound COc1ccc(OC(F)(F)F)cc1NC(=O)NCc1ccccc1OCc1ccc(C(N)=O)cc1 [Compound of Example 12, 4-((2-((3-(2-methoxy-5-(trifluoromethoxy)phenyl)ureido)methyl)phenoxy)methyl)benzamide] has an IC50 of 38.6 nM. NC(=O)c1ccc(Oc2ccccc2CNC(=O)Nc2ccc(CO)c(C(F)(F)F)c2)cc1 [Compound of Example 36, 4-(2-((3-(4-(hydroxymethyl)-5-(trifluoromethyl)phenyl)ureido)methyl)phenoxy)benzamide] gave an IC50 of 13.2 nM. COc1c(CO)cc(C(F)(F)F)cc1NC(=O)NCc1ccccc1Oc1ccc(C(N)=O)cc1 [Compound of Example 29] was tested, and the IC50 was 5.98 nM. NC(=O)c1ccc(Oc2ccccc2CNC(=O)Nc2ccc(CN3CCNCC3)c(C(F)(F)F)c2)cc1 [Compound of Example 40, 4-(2-((3-(4-((piperazin-1-ylmethyl)-5-(trifluoromethyl)phenyl)ureido)methyl)phenoxy)benzamide hydrochloride] was tested, and the IC50 was 8.91 nM. NC(=O)c1ccc(Oc2ccccc2CNC(=O)Nc2cccc(C(F)(F)F)c2)cc1 [Compound of Example 32] showed an IC50 of 17.3 nM. NC(=O)c1ccc(Oc2ccccc2CNC(=O)Nc2cc(C(F)(F)F)ccc2OC2CCNCC2)cc1 [Compound of Example 41, 4-(2-((3-(2-(piperidin-4-yloxy)-5-(trifluoromethyl)phenyl)ureido)methyl)phenoxy)benzamide] showed an IC50 of 35.2 nM. For COC(=O)c1ccc(COc2ccccc2CNC(=O)Nc2cc(C(F)(F)F)cc(CO)c2OC)cc1 [Compound of Example 10, methyl 4-((2-((3-(3-(hydroxymethyl)-2-methoxy-5-(trifluoromethyl)phenyl)ureido)methyl)phenoxy)methyl)benzoate], the IC50 was 156 nM. With CN1CCN(Cc2ccc(NC(=O)NCc3ccccc3Oc3ccc(C(N)=O)cc3)cc2C(F)(F)F)CC1 [Compound of Example 38, 4-(2-((3-(4-((4-methylpiperazin-1-yl)methyl)-3-(trifluoromethyl)phenyl)ureido)methyl)phenoxy)benzamide] the IC50 was 4.64 nM. Work on COc1ccc(C(F)(F)F)cc1NC(=O)NCc1ccccc1Oc1ccc(C(N)=O)cc1 [Compound of Example 31] yielded an IC50 of 11 nM. COc1ccc(S(F)(F)(F)(F)F)cc1NC(=O)NCc1ccccc1OCc1ccncc1 [Compound of Example 1] was tested, and the IC50 was 52.1 nM. COc1c(CO)cc(C(F)(F)F)cc1NC(=O)NCc1ccccc1OCc1cccc(C(N)=O)c1 [Compound of Example 22] was tested, and the IC50 was 28.5 nM. With CNC(=O)c1ccc(Oc2ccccc2CNC(=O)Nc2cccc(C(F)(F)F)c2)cc1 [Compound of Example 42] the IC50 was 21.5 nM. COc1ccc(OC(F)(F)F)cc1NC(=O)NCc1ccccc1OCc1ccncc1 [Compound of Example 4] showed an IC50 of 51.7 nM. COC(=O)c1ccc(Oc2ccccc2CNC(=O)Nc2cc(OC(F)(F)F)ccc2OC)cc1 [Compound of Example 25] was tested, and the IC50 was 194 nM. CCN(CC)CCNC(=O)c1ccc(COc2ccccc2CNC(=O)Nc2cc(OC(F)(F)F)ccc2OC)cc1 [Compound of Example 15, N-(2-(diethylamino)ethyl)-4-((2-((3-(2-methoxy-5-(trifluoromethoxy)phenyl)ureido)methyl)phenoxy)methyl)benzamide] was tested, and the IC50 was 308 nM. Work on CCOc1ccc(Cl)cc1NC(=O)NCc1ccccc1Oc1ccc(C(N)=O)cc1 [Compound of Example 51] yielded an IC50 of 18.3 nM. Compound COc1c(CO)cc(S(F)(F)(F)(F)F)cc1NC(=O)NCc1ccccc1OCc1ccncc1 [Compound of Example 2] has an IC50 of 26.1 nM. NC(=O)c1ccc(Oc2ccccc2CNC(=O)Nc2cc(C(F)(F)F)ccc2OC2COC2)cc1 [Compound of Example 33, 4-(2-((3-(2-(oxetan-3-yloxy)-5-(trifluoromethyl)phenyl)ureido)methyl)phenoxy)benzamide] showed an IC50 of 12.9 nM. CNC(=O)c1ccc(Oc2ccccc2CNC(=O)Nc2cccc(C(F)(F)F)c2)nc1 [Compound of Example 48, N-methyl-6-(2-((3-(3-(trifluoromethyl)phenyl)ureido)methyl)phenoxy)nicotinamide] showed an IC50 of 29.1 nM. Compound COc1ccc(OC(F)(F)F)cc1NC(=O)NCc1ccccc1OCc1cccc(C(=O)O)c1 [Compound of Example 9, 3-((2-((3-(2-methoxy-5-(trifluoromethoxy)phenyl)ureido)methyl)phenoxy)methyl)benzoic acid] has an IC50 of 137 nM. Compound COc1ccc(OC(F)(F)F)cc1NC(=O)NCc1ccccc1OCc1ccc(C(=O)O)cc1 [Compound of Example 8, 4-((2-((3-(2-methoxy-5-(trifluoromethoxy)phenyl)ureido)methyl)phenoxy)methyl)benzoic acid] has an IC50 of 172 nM. With COc1ccc(S(F)(F)(F)(F)F)cc1NC(=O)NCc1ccccc1Oc1ccnc(-n2ccnc2)n1 [Compound of Example 24, 1-(2-((2-(1H-imidazol-1-yl)pyrimidin-4-yl)oxy)benzyl)-3-(2-methoxy-5-(pentafluorosulfanyl)phenyl)urea] the IC50 was 42.2 nM. Compound CCOc1ccc(C(F)(F)F)cc1NC(=O)NCc1ccccc1Oc1ccc(C(N)=O)cc1 [Compound of Example 46] has an IC50 of 22.5 nM. Compound COc1c(CO)cc(C(F)(F)F)cc1NC(=O)NCc1ccccc1OCc1ccc(C(N)=O)cc1 [Compound of Example 20, 4-((2-((3-(3-(hydroxymethyl)-2-methoxy-5-(trifluoromethyl)phenyl)ureido)methyl)phenoxy)methyl)benzamide] has an IC50 of 13.5 nM. COc1ccc(OC(F)(F)F)cc1NC(=O)NCc1ccccc1OCc1cccnc1 [Compound of Example 3] gave an IC50 of 838 nM. Work on NC(=O)c1ccc(COc2ccccc2CNC(=O)Nc2cccc(C(F)(F)F)c2)cc1 [Compound of Example 19, 4-((2-((3-(3-(trifluoromethyl)phenyl)ureido)methyl)phenoxy)methyl)benzamide] yielded an IC50 of 37.4 nM. For COc1ccc(C(F)(F)F)cc1NC(=O)NCc1ccccc1OCc1ccc(C(N)=O)cc1 [Compound of Example 18, 4-((2-((3-(2-methoxy-5-(trifluoromethyl)phenyl)ureido)methyl)phenoxy)methyl)benzamide], the IC50 was 23.3 nM. NC(=O)c1ccc(Oc2ccccc2CNC(=O)Nc2cc(CO)cc(C(F)(F)F)c2)cc1 [Compound of Example 35] showed an IC50 of 12.9 nM. Work on COc1ccc(C(F)(F)F)cc1NC(=O)NCc1ccccc1Oc1ccc(C(=O)O)cc1 [Compound of Example 30] yielded an IC50 of 12.4 nM. COc1ccc(OC(F)(F)F)cc1NC(=O)NCc1ccccc1Oc1ccc(C(=O)O)cc1 [Compound of Example 26] was tested, and the IC50 was 38.3 nM. Compound COc1ccc(C(F)(F)F)cc1NC(=O)NCc1ccccc1OCc1cccc(C(N)=O)c1 [Compound of Example 21, 3-((2-((3-(2-methoxy-5-(trifluoromethyl)phenyl)ureido)methyl)phenoxy)methyl)benzamide] has an IC50 of 67.4 nM. Compound NC(=O)c1cccc(Oc2ccccc2CNC(=O)Nc2cccc(C(F)(F)F)c2)c1 [Compound of Example 44] has an IC50 of 23.7 nM. In the case of COc1ccc(OC(F)(F)F)cc1NC(=O)NCc1ccccc1OCc1ccc(C(=O)NCCN(C)C)cc1 [Compound of Example 16, N-(2-(dimethylamino)ethyl)-4-((2-((3-(2-methoxy-5-(trifluoromethoxy)phenyl)ureido)methyl)phenoxy)methyl)benzamide], the IC50 is reported as 163 nM. With NC(=O)c1ccc(Oc2ccccc2CNC(=O)Nc2cc(OC(F)(F)F)ccc2OC2COC2)cc1 [Compound of Example 34, 4-(2-((3-(2-(oxetan-3-yloxy)-5-(trifluoromethoxy)phenyl)ureido)methyl)phenoxy)benzamide] the IC50 was 22 nM. NC(=O)c1ccc(Oc2ccccc2CNC(=O)Nc2cc(CN3CCNCC3)cc(C(F)(F)F)c2)cc1 [Compound of Example 39, 4-(2-((3-(3-((piperazin-1-ylmethyl)-5-(trifluoromethyl)phenyl)ureido)methyl)phenoxy)benzamide hydrochloride] was tested, and the IC50 was 4.2 nM.

— patent publication US10519106B2, “Urea derivative and use therefor” (Toray Industries, Inc., priority 2015, dated 2019)
